Measured values: paper PMC8802890, “Identification of U937^JAK3-M511I Acute Myeloid Leukemia Cells as a Sensitive Model to JAK3 Inhibitor” (Frontiers in Oncology, 2022)

Key:
JAK3 = target: T1, JAK3 (Homo sapiens, UniProt P52333); experiment: Z'-Lyte kinase assay, JAK3; type: biochemical
T1 construct: purchased Invitrogen (Waltham, MA, USA)
T1 sequence (P52333 1-1124): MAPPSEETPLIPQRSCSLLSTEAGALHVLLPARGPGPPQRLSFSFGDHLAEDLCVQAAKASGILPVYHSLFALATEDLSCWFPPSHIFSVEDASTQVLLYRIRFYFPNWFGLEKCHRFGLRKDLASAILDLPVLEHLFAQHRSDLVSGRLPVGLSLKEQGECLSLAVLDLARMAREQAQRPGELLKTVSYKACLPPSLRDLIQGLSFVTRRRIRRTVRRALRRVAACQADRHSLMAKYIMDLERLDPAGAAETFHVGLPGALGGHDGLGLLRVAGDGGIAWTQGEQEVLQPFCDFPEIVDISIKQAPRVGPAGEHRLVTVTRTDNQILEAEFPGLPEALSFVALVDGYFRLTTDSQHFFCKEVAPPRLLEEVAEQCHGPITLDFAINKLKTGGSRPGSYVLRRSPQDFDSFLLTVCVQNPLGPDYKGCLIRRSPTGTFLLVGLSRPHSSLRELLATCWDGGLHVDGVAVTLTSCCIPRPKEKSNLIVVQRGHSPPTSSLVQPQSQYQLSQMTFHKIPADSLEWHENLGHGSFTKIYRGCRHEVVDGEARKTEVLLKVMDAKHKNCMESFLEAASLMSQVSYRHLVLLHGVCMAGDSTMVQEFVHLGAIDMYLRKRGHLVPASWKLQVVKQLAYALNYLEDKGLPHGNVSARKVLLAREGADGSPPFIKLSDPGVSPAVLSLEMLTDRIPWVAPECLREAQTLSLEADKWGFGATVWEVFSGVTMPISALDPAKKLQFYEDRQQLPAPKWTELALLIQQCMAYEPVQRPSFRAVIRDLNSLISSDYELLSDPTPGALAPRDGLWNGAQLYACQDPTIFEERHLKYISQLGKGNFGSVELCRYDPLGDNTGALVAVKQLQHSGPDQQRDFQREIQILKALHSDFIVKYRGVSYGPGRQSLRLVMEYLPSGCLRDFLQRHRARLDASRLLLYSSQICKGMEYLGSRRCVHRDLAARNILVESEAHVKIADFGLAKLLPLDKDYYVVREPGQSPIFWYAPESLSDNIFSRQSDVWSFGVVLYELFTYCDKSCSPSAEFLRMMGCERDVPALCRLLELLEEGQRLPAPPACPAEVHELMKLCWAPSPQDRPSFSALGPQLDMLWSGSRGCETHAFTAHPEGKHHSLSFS

U937 AML cells = experiment: CCK-8 anti-proliferation, U937; details: for IC50: Homo sapiens, U-937, 72 h, read-out: IC50 Cell line U937
Ba/F3-TEL-JAK1 = experiment: CCK-8 anti-proliferation, Ba/F3-TEL-JAK1; type: cell-based, Murine; details: Mus musculus, CCK-8, 72 h, mean ± SD
Ba/F3-TEL-JAK2 = experiment: CCK-8 anti-proliferation, Ba/F3-TEL-JAK2; type: cell-based, Murine; details: Mus musculus; CCK-8, 72 h; mean ± SD
Ba/F3-JAK3 (M511I) = experiment: CCK-8 anti-proliferation, Ba/F3-JAK3 (M511I); type: cell-based, Murine; details: Mus musculus; CCK-8, 72 h; mean ± SD
Ba/F3 = experiment: CCK-8 anti-proliferation, parental Ba/F3; type: cell-based, Murine; details: Mus musculus, BaF3; parental cells, with IL-3; CCK-8, 72 h; mean ± SD
Daudi = experiment: CCK-8 anti-proliferation, Daudi; details: read-out: IC50 Cell line Daudi; CCK-8, 72 h; mean ± SD
HL-60 = experiment: CCK-8 anti-proliferation, HL-60; details: read-out: IC50 Cell line HL-60; CCK-8, 72 h; mean ± SD
MOLT-4 = experiment: CCK-8 anti-proliferation, MOLT-4; details: read-out: IC50 Cell line MOLT-4; CCK-8, 72 h; mean ± SD
Jurkat = experiment: CCK-8 anti-proliferation, Jurkat; details: read-out: IC50 Cell line Jurkat; CCK-8, 72 h; mean ± SD
MV4-11 = experiment: CCK-8 anti-proliferation, MV4-11; details: read-out: IC50 Cell line MV4-11; CCK-8, 72 h; mean ± SD
OCI-LY3 = experiment: CCK-8 anti-proliferation, OCI-LY3; details: read-out: IC50 Cell line OCI-LY3; CCK-8, 72 h; mean ± SD
JAK1 = target: T2, JAK1 (Homo sapiens, UniProt P23458); experiment: Z'-Lyte kinase assay, JAK1; type: biochemical
T2 construct: purchased Invitrogen (Waltham, MA, USA)

U937 cells [1] = experiment: Cell cycle analysis by flow cytometry, U937; type: cell-based, human
OCI-LY3 cells = experiment: Cell cycle analysis by flow cytometry, OCI-LY3; type: cell-based; details: PF-06651600 treatment
U937 cells [2] = experiment: Apoptosis assay (7-AAD / Annexin V-PE flow cytometry), U937; type: cell-based, human; details: PF-06651600 treatment
[3] = system: JAK3-STAT3/5 signal pathway in U937 cells; experiment: Western blotting of JAK3-STAT3/5 signal pathway, U937; type: cell-based, human
[4] = system: JAK3-STAT3/5 signal pathway in Ba/F3-JAK3 M511I cell line; experiment: Western blotting of JAK3-STAT3/5 signal pathway, Ba/F3-JAK3 M511I; type: cell-based, Murine
Text: Murine Ba/F3 cells were purchased from DSMZ (Deutsche Sammlung von Mikroorganismen und Zellkulturen). Ba/F3 cell lines stably expressing JAK1 and JAK2 were self-established through electroporation of pCDNA3.1-TEL plasmids. JAK3 (M511I) was produced from pCDNA3.1 plasmids using the Amaxa Cell Line Nucleofector Kit V (Lonza, Cologne, Germany). Stable cell lines were selected by G418 (Merck, NJ, USA) and subsequent withdrawal of IL-3 (R&D, MN, USA). All Ba/F3 stable cell lines were confirmed by positive drug tests, DNA sequencing, and Western blotting (WB) analysis. Parental Ba/F3 cells were maintained in RPMI-1640 supplemented with 10% FBS (Biological Industries) and 1% penicillin-streptomycin (Biological Industries) and 10 ng/ml of IL-3, while all Ba/F3 stable cell lines were cultured in the same medium without IL-3.
Cells at a cell density of 8 × 10^5 cells/ml were treated with different concentrations of compounds or DMSO for the indicated time. The cells were then lysed with 1× SDS sample lysis buffer, as recommended by CST. […] The protein signals were detected with Amersham Imager 600 system (GE, Boston, MA, USA) using an ECL Western blotting detection kit (Thermo Fisher Scientific, Waltham, MA, USA).

T2 sequence (P23458 whole entry): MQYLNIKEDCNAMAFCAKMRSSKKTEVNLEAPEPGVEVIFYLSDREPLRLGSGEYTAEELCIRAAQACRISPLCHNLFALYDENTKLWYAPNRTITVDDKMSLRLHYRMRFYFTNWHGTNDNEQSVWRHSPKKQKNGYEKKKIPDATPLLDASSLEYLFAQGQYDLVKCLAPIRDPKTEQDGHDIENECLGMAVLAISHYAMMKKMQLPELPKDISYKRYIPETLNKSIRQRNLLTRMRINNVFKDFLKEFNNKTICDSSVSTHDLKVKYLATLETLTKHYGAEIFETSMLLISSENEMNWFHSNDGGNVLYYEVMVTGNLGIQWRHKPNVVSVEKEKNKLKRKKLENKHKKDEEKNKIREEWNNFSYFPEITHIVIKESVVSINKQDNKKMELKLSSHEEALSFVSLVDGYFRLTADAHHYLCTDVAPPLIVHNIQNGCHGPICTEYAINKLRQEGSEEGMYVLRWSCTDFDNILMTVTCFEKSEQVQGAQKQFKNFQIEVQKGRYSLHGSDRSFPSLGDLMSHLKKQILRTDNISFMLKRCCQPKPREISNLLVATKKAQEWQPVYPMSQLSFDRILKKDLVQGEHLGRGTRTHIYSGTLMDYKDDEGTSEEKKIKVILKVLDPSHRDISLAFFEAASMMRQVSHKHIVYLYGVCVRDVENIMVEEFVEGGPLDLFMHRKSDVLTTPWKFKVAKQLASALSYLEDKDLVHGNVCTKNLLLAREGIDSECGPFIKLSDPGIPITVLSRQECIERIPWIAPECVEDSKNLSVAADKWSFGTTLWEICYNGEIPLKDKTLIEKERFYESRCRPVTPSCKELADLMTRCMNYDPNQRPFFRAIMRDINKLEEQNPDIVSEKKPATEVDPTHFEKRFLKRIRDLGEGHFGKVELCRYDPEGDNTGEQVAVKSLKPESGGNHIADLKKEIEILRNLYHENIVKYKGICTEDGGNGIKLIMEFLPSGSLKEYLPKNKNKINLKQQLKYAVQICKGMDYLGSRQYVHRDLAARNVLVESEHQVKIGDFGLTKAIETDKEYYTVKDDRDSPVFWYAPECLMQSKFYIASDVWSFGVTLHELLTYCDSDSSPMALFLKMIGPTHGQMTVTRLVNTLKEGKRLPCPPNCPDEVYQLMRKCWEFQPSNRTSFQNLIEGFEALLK

With `CCS(=O)(=O)N1CC(CC#N)(n2cc(-c3ncnc4[nH]ccc34)cn2)C1` [Baricitinib] the “JAK3 kinase inhibition” value (JAK3) was “weakly suppressed the activity of JAK3” and the “antiproliferative activity against U937 cells” value (from here on “antiproliferative activity”) (U937 AML cells) was “micromolar IC50 values”.
For `Cc1cnc(Nc2ccc(OCCN3CCCC3)cc2)nc1Nc1cccc(S(=O)(=O)NC(C)(C)C)c1` [Fedratinib], the “JAK3 kinase inhibition” value (JAK3) was “weakly suppressed the activity of JAK3”, the IC50 (Ba/F3-TEL-JAK1) was 1.96 ± 0.24 µM and the IC50 (Ba/F3-TEL-JAK2) was 1.83 ± 0.06 µM. For the same compound, the IC50 (Ba/F3-JAK3 (M511I)) was 2.84 ± 0.39 µM, the IC50 (Ba/F3) was 3.47 ± 0.33 µM and the “antiproliferative activity” value (U937 AML cells) was “micromolar IC50 values”. For the same compound, the IC50 (U937 AML cells) was 2.53 ± 0.17 µM, the IC50 (Daudi) was 3.92 ± 0.21 µM and the IC50 (HL-60) was 2.44 ± 0.16 µM. For the same compound, the IC50 (MOLT-4) was 2.72 ± 0.54 µM, the IC50 (Jurkat) was 1.42 ± 0.32 µM and the IC50 (MV4-11) was greater than 10 µM. It also gave an IC50 (OCI-LY3) of 3.18 ± 0.13 µM.
For `O=C(Nc1nc2cccc(-c3ccc(CN4CCS(=O)(=O)CC4)cc3)n2n1)C1CC1` [Filgotinib], the “JAK3 kinase inhibition” value (JAK3) was “did not obviously suppress JAK3 kinase activity”, the IC50 (Ba/F3-TEL-JAK1) was greater than 10 µM and the IC50 (Ba/F3-TEL-JAK2) was greater than 10 µM. For the same compound, the IC50 (Ba/F3-JAK3 (M511I)) was 7.19 ± 2.5 µM, the IC50 (Ba/F3) was greater than 10 µM and the “antiproliferative activity” value (U937 AML cells) was “almost totally inactive”. For the same compound, the IC50 (U937 AML cells) was greater than 10 µM, the IC50 (Daudi) was greater than 10 µM and the IC50 (HL-60) was greater than 10 µM. For the same compound, the IC50 (MOLT-4) was greater than 10 µM, the IC50 (Jurkat) was greater than 10 µM and the IC50 (MV4-11) was greater than 10 µM. The IC50 (OCI-LY3) was greater than 10 µM.
For `C=CC(=O)N1C[C@H](Nc2ncnc3[nH]ccc23)CC[C@@H]1C` [PF-06651600, ritlecitinib], the “potency against JAK1 less than against JAK3” value (JAK1) was “approximately 3,000 fold”, the IC50 (Ba/F3-TEL-JAK1) was greater than 10 µM and the IC50 (Ba/F3-TEL-JAK2) was greater than 10 µM. The IC50 (Ba/F3-JAK3 (M511I)) was 0.03 ± 0.01 µM, the IC50 (Ba/F3) was greater than 10 µM and the “cell cycle arrest” value (U937 cells [1]; PF-06651600 treatment) was “dose-dependent G0/G1 phase cell cycle arrest”. The “cell fate or phenotypes” value (OCI-LY3 cells) was “did not obviously affect the cell fate or the phenotypes”, the “apoptosis” value (U937 cells [2]) was “inducing apoptosis only barely” and the “activation of JAK3 and the downstream signals” value [3] was “potently suppressed the activation of JAK3 and the downstream signals in a dose-dependent manner”. For the same compound, the “downstream signaling factors of JAK3” value [4] was “inhibited the downstream signaling factors of JAK3”, the “phosphorylation of JAK3” value [4] was “enhanced the phosphorylation of JAK3” and the IC50 (U937 AML cells) was 0.027 ± 0.004 µM. For the same compound, the IC50 (Daudi) was greater than 10 µM, the IC50 (HL-60) was greater than 10 µM and the IC50 (MOLT-4) was greater than 10 µM. For the same compound, the IC50 (Jurkat) was greater than 10 µM, the IC50 (MV4-11) was greater than 10 µM and the IC50 (OCI-LY3) was greater than 10 µM.
Compound `NC(=O)c1cnc2[nH]ccc2c1N[C@@H]1[C@@H]2CC3C[C@H]1C[C@@](O)(C3)C2` [Peficitinib] has an IC50 (Ba/F3-TEL-JAK1) of 0.6 ± 0.08 µM, an IC50 (Ba/F3-TEL-JAK2) of 1.29 ± 0.09 µM and an IC50 (Ba/F3-JAK3 (M511I)) of 0.1 ± 0.05 µM. For the same compound, the IC50 (Ba/F3) was 1.56 ± 0.09 µM, the IC50 (U937 AML cells) was 0.09 ± 0.02 µM and the IC50 (Daudi) was 5.82 ± 0.15 µM. It also gave an IC50 (HL-60) of 4.93 ± 1.22 µM, an IC50 (MOLT-4) of 2.22 ± 0.08 µM and an IC50 (Jurkat) of 2.32 ± 0.82 µM. For the same compound, the IC50 (MV4-11) was 9.19 ± 0.98 µM and the IC50 (OCI-LY3) was 3.42 ± 0.01 µM.
For `N#CC[C@H](C1CCCC1)n1cc(-c2ncnc3[nH]ccc23)cn1` [Ruxolitinib], the “JAK3 kinase inhibition” value (JAK3) was “reasonable inhibition of JAK3”, the “antiproliferative activity” value (U937 AML cells) was “sub-micromole antiproliferative activity” and the IC50 (U937 AML cells) was 0.7 ± 0.11 µM. The IC50 (Daudi) was greater than 10 µM, the IC50 (HL-60) was greater than 10 µM and the IC50 (MOLT-4) was greater than 10 µM. It also gave an IC50 (Jurkat) greater than 10 µM, an IC50 (MV4-11) greater than 10 µM and an IC50 (OCI-LY3) greater than 10 µM.
With `CC[C@@H]1CN(C(=O)NCC(F)(F)F)C[C@@H]1c1cnc2cnc3[nH]ccc3n12` [Upadacitinib] the IC50 (Ba/F3-TEL-JAK1) was 0.075 ± 0.008 µM, the IC50 (Ba/F3-TEL-JAK2) was 0.18 ± 0.01 µM and the IC50 (Ba/F3-JAK3 (M511I)) was 0.098 ± 0.047 µM. It also gave an IC50 (Ba/F3) of 0.9 ± 0.12 µM, an IC50 (U937 AML cells) of 0.25 ± 0.03 µM and an IC50 (Daudi) greater than 10 µM. It also gave an IC50 (HL-60) greater than 10 µM, an IC50 (MOLT-4) greater than 10 µM and an IC50 (Jurkat) greater than 10 µM. It also gave an IC50 (MV4-11) greater than 10 µM and an IC50 (OCI-LY3) greater than 10 µM.
With “Si-JAK3: Synthetic JAK3 small interfering RNA from RiboBio; si-JAK3: 5′-GCAGACACTTAGCTTGGAA-3′ (chemistry not fully specified)” the “cell cycle arrest” value (U937 cells [1]; JAK3 siRNA) was “induced G0/G1 phase arrest” and the “activation of JAK3-STAT3/5 signal pathway” value ([3]; JAK3 siRNA for 72 h) was “suppressed activation of JAK3-STAT3/5 signal pathway”.
